Assay in all cases: NCI-60 cell line screen, 48 h
Assay [1] has as its system CAKI-1 renal.
For assay [2], the system named is HCT-116 colon.
For assay [3], the system named is HS 578T breast.
Assay [4] deals with IGROV1 ovarian.
Assay [5] deals with K-562 leukemia.
Assay [6] relates to KM12 colon.
Assay [7] has as its system MDA-MB-435.
Assay [8] concerns NCI-H522 lung.
Assay [9] concerns SF-539 CNS.
Assay [10] relates to SNB-19 CNS.
Assay [11] concerns U251 CNS.

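Five compound concentrations were applied to cells in 96-well plates for 48 hours; endpoints were derived by simple linear interpolation of the resulting dose-response curve. TGI is the concentration that stops growth completely.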

As to `Cc1ccc(SC(=O)N2C(=S)NC(=NC3CCCCC3)C23CCCCC3)cc1`, the TGI in assay [1], in [2], in [3], in assay [4], in [5] and in assay [6] was above 100 µM throughout. For the same molecule, the TGI in [7], in assay [8], in assay [9], in assay [10] and in [11] was above 100 µM throughout.

Take `CC(=O)OCC=C(CCl)CCC(Br)C(C)(C)Br` (mixture of isomers): the TGI in assay [1], in assay [2], in [3], in assay [4], in assay [5] and in assay [6] was above 10 µM in each case. For the same molecule, the TGI in assay [7], in assay [8], in assay [9], in [10] and in assay [11] was above 10 µM throughout.

In the case of `CSc1cc(N)ccc1N=Nc1ccc(S(N)(=O)=O)cc1`, the TGI in [1] was above 100 µM; in assay [2], above 100 µM; in [3], 73.9 µM; in [4] it was 72.3 µM; in assay [5] it was above 100 µM; in assay [6], 92.2 µM. The TGI was 97.4 µM in [7]; 43.7 µM in [8]; 93.7 µM in assay [9]; above 100 µM in assay [10]; above 100 µM in [11].

Regarding `CN(Cc1cnc2nc(N)nc(N)c2n1)c1ccc(C(=O)NC(CCC(=O)NC(P(=O)(O)O)P(=O)(O)O)C(=O)O)cc1` (centres undefined), the TGI in assay [1] was 29.8 µM; in [2], above 100 µM; in [3], above 100 µM; in [4], above 100 µM; in assay [5], above 100 µM; in [6], above 100 µM. The TGI in assay [7] was above 100 µM; in assay [8] it was above 100 µM; in assay [9], above 100 µM; in assay [10], 27.6 µM; in [11], above 100 µM.

As to `CC(=O)N1CCN(C23OC4(N5CCN(C(C)=O)CC5)C5C6CC(C7C6C4C72)C53)CC1` (centres undefined), the TGI in assay [1], in [2], in assay [3], in assay [4], in assay [5] and in assay [6] was above 100 µM in each case. Besides, the TGI in assay [7], in assay [8], in assay [9], in assay [10] and in assay [11] was above 100 µM throughout.

Take `CCOC(=O)C(/C=N\C(=S)Nc1ccc(OCC)cc1)=C(/O)c1ccccc1`: the TGI in assay [1], in [2], in [3], in assay [4], in assay [5] and in [6] was above 100 µM throughout. In addition, the TGI in assay [7], in assay [8], in assay [9], in assay [10] and in assay [11] was above 100 µM each time.

As for `NC(N)=NS(=O)(=O)c1ccc(NC(=O)c2ccc3nc4ccccc4c(Nc4ccc(S(N)(=O)=O)cc4)c3c2)cc1`, the TGI in assay [1], in assay [2], in assay [3], in assay [4], in assay [5] and in assay [6] was above 100 µM throughout. Also, the TGI in assay [7], in assay [8], in assay [9], in assay [10] and in [11] was above 100 µM each time.

In the case of `CC1(COS(=O)(=O)OCC2(C)COS(=O)(=O)OC2)COS(=O)(=O)OC1`, the TGI in [1] is above 100 µM; in assay [2] it was above 100 µM; in [3] it was above 100 µM; in assay [4], above 100 µM; in assay [5] it was above 100 µM; in assay [6] it was above 77.3 µM. In addition, the TGI in [7] is above 78.4 µM; in assay [8], above 100 µM; in [9], above 100 µM; in assay [10], above 100 µM; in assay [11] it was above 100 µM.

Take `O=C1C(Br)=C(c2ccccc2)S(=O)c2ccccc21` (centres undefined): the TGI in assay [1] amounted to 21.8 µM; in assay [2], 20.4 µM; in [3] it was 80.6 µM; in [4] it was 23.1 µM; in assay [5] it was 11.8 µM; in assay [6] it was 30.7 µM. Besides, the TGI in assay [7] came out at 19.5 µM; in assay [8], 3.35 µM; in assay [9], 12.9 µM; in [10], 39.9 µM; in assay [11], 22.8 µM.

Take `Oc1ccc(CCc2cc(O)cc(O)c2)cc1`: the TGI in assay [1], in assay [2], in assay [3], in assay [4], in assay [5] and in assay [6] was above 100 µM each time. For the same molecule, the TGI in assay [7], in assay [8], in assay [9], in assay [10] and in assay [11] was above 100 µM in each case.

As for `O=C(NCCCNCCNC(=O)c1cc(-c2ccccc2)nc2ccccc12)c1cc(-c2ccccc2)nc2ccccc12`, the TGI in [1] came out at 5.45 µM; in [2] it was 3.04 µM; in [3], 4.5 µM; in assay [4] it was 3.59 µM; in assay [5], 4.45 µM; in assay [6], 3.55 µM. The TGI is 3.15 µM in assay [7]; 3.14 µM in [8]; 3.57 µM in [9]; 3.93 µM in assay [10]; 3.24 µM in assay [11].

Regarding `[N-]=[N+]=Nc1ccc(CNc2cc(=O)[nH]c(=O)[nH]2)cc1`, the TGI in [1], in assay [2], in [3], in assay [4], in assay [5] and in assay [6] was above 100 µM throughout. In addition, the TGI in assay [7] was above 80 µM; in assay [8] it was above 100 µM; in assay [9], above 100 µM; in [10], above 100 µM; in assay [11] it was above 100 µM.

`S=C(S)NCC1CCC(CNC(=S)S)CC1` (centres undefined): the TGI in [1] is 30.6 µM; in [2] it was 42.5 µM; in [3], above 100 µM; in assay [4], 33.9 µM; in assay [5] it was above 100 µM; in assay [6], 42.5 µM. In addition, the TGI is 61.4 µM in [7]; 28 µM in assay [8]; above 100 µM in [9]; above 100 µM in [10]; 43 µM in [11].

In the case of `COc1ccc(OC)c2c1C1CCC(=O)N1CN2C(C)=O` (centres undefined), the TGI in [1], in [2], in assay [3], in [4], in assay [5] and in [6] was above 100 µM each time. The TGI in assay [7], in [8], in assay [9], in [10] and in assay [11] was above 100 µM throughout.

As to `Cc1c(-c2ccccc2)c(C#N)c2nnc(C(N)=O)c(N)n12`, the TGI in assay [1], in [2], in assay [3], in assay [4], in assay [5] and in [6] was above 100 µM each time. The TGI in assay [7], in assay [8], in [9], in assay [10] and in assay [11] was above 100 µM throughout.

As to `CC(C)OP(=O)(OC(C)C)C(C(C)C)N(C)/C(F)=N/C(F)(F)F` (centres undefined), the TGI in assay [1], in assay [2], in assay [3], in assay [4], in assay [5] and in [6] was above 100 µM throughout. Further, the TGI in [7], in [8], in assay [9], in assay [10] and in assay [11] was above 100 µM each time.

For `O=c1oc2ccc(Cl)cc2cc1-c1cn2cc(Cl)ccc2n1`, the TGI in assay [1] is above 100 µM; in assay [2], above 100 µM; in [3], above 68.5 µM; in assay [4], above 100 µM; in [5], above 100 µM; in assay [6], above 58.6 µM. The TGI in assay [7] was 1.18 µM; in [8] it was 11.2 µM; in [9], above 100 µM; in assay [10], above 27.1 µM; in [11], above 100 µM.

`COc1cc(C2SCC(=O)N2c2ccc(Oc3ccc(Cl)cc3)c(Cl)c2)cc(OC)c1OC` (centres undefined): the TGI is 33.6 µM in assay [1]; 35.5 µM in assay [2]; 40.7 µM in assay [3]; 30.7 µM in assay [4]; above 100 µM in assay [5]; 46 µM in assay [6]. Besides, the TGI was 41.3 µM in [7]; 37.1 µM in [8]; 54.2 µM in [9]; above 100 µM in [10]; above 100 µM in assay [11].

Regarding `Cc1ccc(-c2n[nH]c(=O)[nH]2)cc1[N+](=O)[O-]`, the TGI in assay [1], in assay [2], in assay [3], in assay [4], in [5] and in assay [6] was above 100 µM in each case. Further, the TGI in assay [7], in [8], in assay [9], in assay [10] and in assay [11] was above 100 µM each time.

In the case of `CC1(C)Oc2ccc(NC(=O)CCC(N)C(=O)O)cc2O1` (centres undefined), the TGI in [1], in [2], in assay [3], in assay [4], in assay [5] and in assay [6] was above 100 µM each time. Further, the TGI in assay [7], in assay [8], in assay [9], in [10] and in [11] was above 100 µM in each case.

Turning to `COC(=O)[C@@H]1C[C@@]2(C3C=CN(C(=O)C(F)(F)F)C=C3)c3ccccc3N(C(=O)C(F)(F)F)[C@H]2N1C(=O)OC`, the TGI in [1], in assay [2], in [3], in [4], in assay [5] and in assay [6] was above 100 µM each time. In addition, the TGI in assay [7], in assay [8], in assay [9], in assay [10] and in assay [11] was above 100 µM in each case.

In the case of `COc1cc2c(/C=C3/C(=O)N(c4ccccc4)c4ccccc43)c(Cl)[nH]c2cc1C`, the TGI in assay [1] was above 59.5 µM; in assay [2], 16.6 µM; in [3], above 100 µM; in assay [4], above 25.8 µM; in [5], above 100 µM; in assay [6], 8.07 µM. The TGI is 3.55 µM in assay [7]; 6.24 µM in assay [8]; 5.86 µM in assay [9]; above 54.6 µM in assay [10]; above 33.3 µM in assay [11].

For the molecule `O=C(CNc1ccc(Cl)cc1Cl)NC1C=Cc2ccc(S(=O)(=O)Nc3ccc(Cl)cc3Cl)cc2C1=O` (centres undefined), the TGI in assay [1], in [2], in assay [3], in assay [4], in assay [5] and in assay [6] was above 100 µM throughout. Also, the TGI in assay [7], in [8], in assay [9], in assay [10] and in assay [11] was above 100 µM throughout.

`O=C(NCc1ccc(Cl)cc1)c1cc2sccc2nc1C(F)(F)F`: the TGI was above 100 µM in assay [1]; above 100 µM in [2]; 47.6 µM in [3]; above 100 µM in assay [4]; above 100 µM in assay [5]; above 100 µM in assay [6]. Besides, the TGI in [7] is above 100 µM; in assay [8], 95.2 µM; in [9], 70 µM; in [10], 51.7 µM; in assay [11], 44.6 µM.

Values taken from PubChem BioAssay (NCI).
